Assays:
HeLa cells [1] = assay: MTT cell cytotoxicity assay, HeLa; format: cell-based, Human; details: Incubation time = 24 hours
Experimental: (§1) Human cervical cancer HeLa cells were grown in Dulbecco's Modified Eagle Medium (DMEM). Human lung normal diploid fibroblasts MRC-5 and neuroblastoma cells SK-N-SH were provided by Cell resource center of Shanghai Institute of Biological Sciences, Chinese Academy of Sciences; and cultured in MEM (GIBCO 41500034); Human derived liver cells QSG-7701 cells were grown in RPMI-1640 (GIBCO 31800022); all cells were supplemented with 10% (v/v) fetal bovine serum, 1% penicillin and streptomycin at 37° C. and 5% CO2.
(§2) HeLa, SKA-SH, QSG-7701 or MRC-5 cells treated with testing complexes for 24 hours were further incubated with MTT, 3-(4,5-dimethylthiazol-2-yl)-2 and 5-diphenyltetrazolium bromide (0.5 mg; ml) for 4 hours, to produce formazan during cell metabolism. Then, formazan was thoroughly dissolved by dimethyl sulfoxide (DMSO), and the absorbance of solutions was measured in Bio-Rad iMark microplate reader (570 nm). Quadruplicates were performed. Data analysis and plotting were operated by the GraphPad Prism 5 software.

SK-N-SH cells = assay: MTT cell cytotoxicity assay, SK-N-SH; format: cell-based, Human; details: Incubation time = 24 hours
Experimental: as §1, §2

QSG-7701 cells = assay: MTT cell cytotoxicity assay, QSG-7701; format: cell-based, Human; details: Incubation time = 24 hours
Experimental: as §1, §2

MRC-5 cells = assay: MTT cell cytotoxicity assay, MRC-5; format: cell-based, Human; details: Incubation time = 24 hours
Experimental: as §1, §2

[2] = Photophysical studies (absorption, emission, decay lifetime, quantum yield); format: physicochemical
Experimental: UV-Visible absorption spectra in the spectral range 200 to 1100 nm were recorded by an HP Agilent UV-8453 Spectrophotometer. The emission spectra and the emission decay lifetimes of HGEu001 and HGEu002 were measured by Horiba Fluorolog-3 spectrophotometer and also measured by Edinburgh instrument ELS920 spectrophotometer for cross checking. (Two spectrophotometers are equipped with a 450 W continuous xenon lamp for steady state emission measurement, 60 W xenon flashlamp for emission life time measurement and an UV-Vis PMT detector—Hamamatsu—R928 cooled 216 at −20° C.)
UV-Visible absorption spectra of HGEu001-Coumarin and HGEu001-Por were recorded by an HP Agilent UV-8453 Spectrophotometer. The emission spectra of HGEu001-Coumarin and HGEu001-Por were measured by Horiba Fluorolog-3 spectrophotometer, which was equipped with a 450 W continuous xenon lamp and a UV-Vis PMT detector—Hamamatsu—R928 cooled 216 at −20° C. for steady state emission measurement.

HeLa cells [3] = assay: Two-photon confocal in vitro imaging (subcellular localization); format: cell-based, Human; details: 10 μM; for localization of red emission: two-photon λex=700 nm
Experimental: Cells were seeded on coverslip in 35-mm culture dishes overnight. And then incubated with HGEu001 or HGEu002 (10 μM) for 6 hours, and the cells were washed by PBS 3 times before imaging. […] Then the unabsorbed complexes were washed out with PBS buffer and the cells were subject to microscopic imaging. The in vitro imaging of HGEu001 and HGEu002 were undertaken on a linear fluorescence microscopy under 375 nm UV light excitation or a confocal laser scanning microscope, Leica TCS SP8, equipped with a Ti:sapphire laser (Libra II, coherent). The excitation beam produced by 690 nm to 1080 nm (fs laser) was focused on the adherent cells through a 63× oil immersion objective.
3D images obtained by the Z-stacks form the two-photon confocal microscopy and the 3D reconstruction was done with built-in programs of Leica TCS SP8 confocal microscope.

GFP-ARL13B = assay: Co-localization imaging with primary cilia marker GFP-ARL13B; format: cell-based, Human; details: HeLa cells, 10 μM
Excerpt: (§3) (a) 3D Co-Localization Imaging of HGEu001 and HGEu002 with Primary Cilia Markers ARTL13B and IFT88.
(§4) Full length ARTL13B (ADP-ribosylation factor-like protein 13B) was PCR amplified from cDNA library and inserted into multiple cloning sites (MCS) of pEGFP-C3 (CLONETECH, #6082-1) using restriction digestion sites of XhoI/EcorI for GFP-ARTL13B expression. […] Plasmid mEmerald-IFT88-N-18 (intraflagellar transport protein 88 homolog) expressing GFP-IFT88 was a gift from Michael Davidson (Addgene plasmid #54125). Plasmids were amplified in E. coli (DH5α) and purified using a StarPrep Plasmid Miniprep Kit (Genstar). Both GFP-ARL13B and GFP-ITF88 for primary cilium tracking were expressed in HeLa cells through lipofectamine2000 (Cat. No.11668-019, Invitrogen) mediated transfection. Briefly, a 3.5 cm dish of HeLa cells (with 70-80% confluent) was transfected with 4 μg DNA plus 4 μL lipotectamine2000 mixture according to the manufacturer instructions. After incubation for 8 hours, 10 μM of HGEu001 or HGEu002 were added and incubated for 6 hours.

GFP-IFT88 = assay: Co-localization imaging with primary cilia marker GFP-IFT88; format: cell-based, Human; details: HeLa cells, 10 μM, 6 hours, z stack, λex=700 nm
Excerpt: as §3, §4

[4] = tested on: organelles (mitochondria, lysosome and Golgi apparatus); assay: Co-localization imaging with organelle probes; format: cell-based, Human; details: HeLa cells, 10 μM, 6 hours, MitoTracker Green FM
Experimental: (b) Co-Localization Imaging of HGEu001 and HGEu002 with Organelles.
Live cell labeling probes of organelles (mitochondria, lysosome and Golgi apparatus) MitoTracker® Green FM (M-7514), LysoTracker® Green DND-26 (L-7526) and GolgiTracker® Oregon Green (W6748, Wheat Germ Agglutinin) were respectively purchased from ThermoFisher Scientic Inc. and stocked in −20° C.
Three dishes of HeLa cells (1×10^5) were first incubated with 10 μM HGEu001/HGEu002 for 6 hours. Then organelles probes (50 nM, each) were added in parallel to the cells and further incubated for 15 minutes. The cells were washed by PBS 3 times before imaging on the linear fluorescence microscopy. Under the excitation of UV light (375 nm) emission from the channel (610-630 nm) were collected for the emission signals from HGEu001/HGEu002. Under 488 nm blue light excitation, imaging channel in the range between 505 and 555 nm were collected from the emission signal of organelles dyes.

`CC(C)(C)NC(=O)CN1CCN(CC(=O)NC(C)(C)C)CCN(Cc2cc(C#Cc3ccc(NC(=O)c4ccc(C(F)(F)F)cc4)cc3)ccn2)CCN(CC(=O)NC(C)(C)C)CC1.O.[Cl-].[Cl-].[Cl-].[Eu+3]` [HGEu002] gave an IC50 (HeLa cells [1]) of 417 µM, an IC50 (SK-N-SH cells) of 437 µM and an IC50 (QSG-7701 cells) of 410 µM. The IC50 (MRC-5 cells) was 402 µM, the “τ(D2O), europium emission decay lifetime” value ([2]; D2O, λem = 614 nm, 5D0→7F2, λex = 340 nm) was 1.78 ms and the “τ(H2O), europium emission decay lifetime” value ([2]; H2O, λem = 614 nm, 5D0→7F2, λex = 340 nm) was 0.56 ms. For the same molecule, the “ε (absorption coefficient)” value ([2]; in H2O, 298K) was 22200 M⁻¹ cm⁻¹, the “λmax (absorption)” value ([2]; in H2O, 298K) was 327 nm and the “ΦL^Eu, overall europium emission quantum yield” value ([2]; in H2O, by integrated sphere) was 10.3%. For the same molecule, the “q, derived hydration number” value ([2]; q (±20%), from k(H2O) and k(D2O)) was 0.9, the “localization of red emission” value (HeLa cells [3]; 3 hours incubation) was “localized in cytoplasm” and the “localization of red emission” value (HeLa cells [3]; 6 hours incubation) was “localized in cytoplasm”. For the same molecule, the “europium emission in the rod-like organelles, three dimensional confocal images” value (HeLa cells [3]; 6 hours, z stack, excitation at 700 nm) was “did not show any europium emission in the rod-like organelles”, the “localization of red emission” value (HeLa cells [3]; 18 hours incubation) was “localized in cytoplasm” and the “localization of red emission” value (HeLa cells [3]; 24 hours incubation) was “localized in cytoplasm”. The “overlap of red emission with green emission of GFP-ARL13B (merged images)” value (GFP-ARL13B; 6 hour incubation after GFP transfection) was “only slight yellow emission can be found in their merged images”, the “merged emission on co-staining with GFP-ARL13B, three dimensional imaging” value (GFP-ARL13B; 6 hours, z stack, λex=700 nm) was “did not show merged yellow in vitro emission” and the “merged emission on co-staining with GFP-IFT88, three dimensional imaging” value (GFP-IFT88) was “did not show merged yellow in vitro emission”. For the same molecule, the “merged emission with green mito-tracker, three dimensional imaging” value [4] was “did not show merged yellow in vitro emission”.

Source: patent US10787465B2, “Lanthanide toolbox for organelle specific molecular imaging with multi-color” (New Life Medicine Technology Company Limited, priority 2017, dated 2020)
